Reference: patent publication US20020165149A1, “Mutated class II major histocompatibility proteins” (priority 2000, published 2002)
Where two headings read alike, the source gives them in different places. No end group written: not given here. *: point of attachment. Biotin = O=C1N[C@H]2[C@H](CS[C@H]2CCCCC(=O)*)N1

Experiments:
I-A^g7-negative L-cells = details: peptide 1.6 μM-50 μM, 3 hours at 37° C., pH 6
Experimental: FIG. 13 is a binding curve showing I-A^g7-positive L-cell binding to titrated amounts of B-1040-63 peptide (1.6 μM-50 μM).

I-A^g7 = assay: Direct binding of biotinylated peptide to L-cells transfected with I-A^g7 (flow cytometry); parameters: species or system murine; details: 3 hours at 37° C., pH 6; streptavidin-PE detection
Chain of I-A^g7 (as listed by the source): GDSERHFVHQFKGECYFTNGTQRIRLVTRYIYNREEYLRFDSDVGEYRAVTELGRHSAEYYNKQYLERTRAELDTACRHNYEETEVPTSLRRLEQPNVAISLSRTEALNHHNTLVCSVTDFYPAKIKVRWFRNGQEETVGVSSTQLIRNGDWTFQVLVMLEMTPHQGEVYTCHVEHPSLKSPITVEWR
Chain of I-A^g7 (P04228 24-256): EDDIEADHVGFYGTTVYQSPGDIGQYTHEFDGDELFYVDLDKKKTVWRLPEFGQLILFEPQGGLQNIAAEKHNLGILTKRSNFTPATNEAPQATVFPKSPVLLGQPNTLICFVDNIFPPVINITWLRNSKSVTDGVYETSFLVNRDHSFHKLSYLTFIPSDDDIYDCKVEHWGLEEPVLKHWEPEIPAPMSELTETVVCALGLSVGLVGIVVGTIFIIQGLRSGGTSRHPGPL

Biotin-RTRPLWVRME [Mut B-1040-63]
binding to untransfected (I-A^g7-negative) L cells (I-A^g7-negative L-cells): does not bind
binding to untransfected (I-A^g7-negative) L cells (I-A^g7-negative L-cells; listed as B-104-63): does not occur
binding to L cells transfected with IA^g7 (I-A^g7): bind specifically
